This passage reports Activity, inhibition and IC50 results from ChEMBL document CHEMBL4811216, “Chemotherapy for human schistosomiasis: how far have we come? What's new? Where do we go from here?” (RSC Med Chem, 2020).

For series [1], the system named is Schistosoma japonicum. Briefly: Antischistosomal activity against Schistosoma japonicum assessed as worm mortality at 10 ug/ml incubated for 72 hrs by microscopic method relative to control. It is filed as functional. To be noted: dose 10 µg/ml.
The subject of series [2] is Schistosoma mansoni. Briefly: Antischistosomal activity against male Schistosoma mansoni assessed as worm killing effect at 100 uM measured after 24 hrs by phase-contrast microscopy relative to control. It is filed as functional.
The test system of series [3] is Schistosoma mansoni. Briefly: Antischistosomal activity against Schistosoma mansoni infected in Swiss albino mouse assessed as reduction in worm burden at 20 mg/kg, po administered for 5 days relative to control. It is filed as functional. On the set-up: scale not given: the % may be the effect or the level left. Particulars: time 5 day.
In series [4] the test system is Schistosoma mansoni. Briefly: Potentiation of praziquantel-induced antischistosomal activity against Schistosoma mansoni infected in Swiss albino mouse assessed as worm burden at 20 mg/kg, po administered for 5 days (reference value: 60%). To be noted: time 5 day. The series is classed as functional.
For series [5], the system named is Schistosoma mansoni. Briefly: Potentiation of praziquantel-induced antischistosomal activity against Schistosoma mansoni infected in Swiss albino mouse assessed as intestinal egg burden at 20 mg/kg, po administered for 5 days (reference value: 67%). The series is classed as functional. Particulars: time 5 day.
Series [6] deals with Schistosoma mansoni. Briefly: Antischistosomal activity against Schistosoma mansoni infected in Swiss albino mouse assessed as reduction in intestinal tissue egg burden at 20 mg/kg, po administered for 5 days relative to control. It is filed as functional. To be noted: time 5 day. On the set-up: scale not given: the % may be the effect or the level left.
In series [7] the target is T1, Cathepsin B1 isotype 1 (Schistosoma mansoni) (UniProt Q8MNY2).
T1 sequence (whole entry): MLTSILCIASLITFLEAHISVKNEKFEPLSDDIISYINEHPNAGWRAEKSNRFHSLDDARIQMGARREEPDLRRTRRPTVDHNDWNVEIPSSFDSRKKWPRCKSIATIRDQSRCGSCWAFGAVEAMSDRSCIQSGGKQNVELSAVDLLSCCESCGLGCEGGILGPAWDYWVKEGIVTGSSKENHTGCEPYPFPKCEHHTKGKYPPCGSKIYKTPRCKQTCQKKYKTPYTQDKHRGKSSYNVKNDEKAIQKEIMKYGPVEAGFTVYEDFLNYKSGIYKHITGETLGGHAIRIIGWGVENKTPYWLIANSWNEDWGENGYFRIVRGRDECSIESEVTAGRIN
Briefly: Inhibition of Schistosoma mansoni cathepsin B1 using Z-Phe-Arg-aminomethylcoumarin as substrate at 100 uM by fluorescence method relative to control.

For series [8], the system named is Schistosoma japonicum. Briefly: Schistosomicidal-activity against adult Schistosoma japonicum at 10 uM incubated for 72 hrs by inverted microscopic method relative to control. The series is classed as functional.
In series [9] the test system is Schistosoma mansoni. Briefly: Antischistosomal activity against Schistosoma mansoni LE assessed as worm mortality at 20 uM incubated for 72 hrs by microscopic method relative to control. It is filed as functional.
The target in series [10] is T2, HDAC1 (histone deacetylase 1) (Homo sapiens, UniProt Q13547). Briefly: Inhibition of human HDAC1 using Z-Lys(Ac)-AMC as substrate at 1 uM by fluorimetric method relative to control. To be noted: HDAC1 enzyme, probe Z-Lys(Ac)-AMC.
T2 sequence (Q13547 whole entry): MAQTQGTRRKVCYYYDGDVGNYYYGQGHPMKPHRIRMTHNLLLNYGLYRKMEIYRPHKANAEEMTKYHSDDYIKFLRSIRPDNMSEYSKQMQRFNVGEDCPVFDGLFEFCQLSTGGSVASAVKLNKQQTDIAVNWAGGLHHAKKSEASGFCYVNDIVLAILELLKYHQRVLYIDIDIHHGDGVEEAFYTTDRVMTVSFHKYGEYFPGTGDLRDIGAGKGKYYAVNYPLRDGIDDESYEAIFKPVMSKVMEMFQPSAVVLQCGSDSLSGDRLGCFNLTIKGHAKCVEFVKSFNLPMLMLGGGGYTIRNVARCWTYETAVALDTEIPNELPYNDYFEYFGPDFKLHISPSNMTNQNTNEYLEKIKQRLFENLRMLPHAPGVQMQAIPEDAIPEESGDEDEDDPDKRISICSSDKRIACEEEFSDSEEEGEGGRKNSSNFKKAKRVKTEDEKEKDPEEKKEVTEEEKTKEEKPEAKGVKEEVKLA
For series [11], the target named is T3, Histone deacetylase 8 (Homo sapiens, UniProt Q9BY41).
T3 sequence (Q9BY41 whole entry): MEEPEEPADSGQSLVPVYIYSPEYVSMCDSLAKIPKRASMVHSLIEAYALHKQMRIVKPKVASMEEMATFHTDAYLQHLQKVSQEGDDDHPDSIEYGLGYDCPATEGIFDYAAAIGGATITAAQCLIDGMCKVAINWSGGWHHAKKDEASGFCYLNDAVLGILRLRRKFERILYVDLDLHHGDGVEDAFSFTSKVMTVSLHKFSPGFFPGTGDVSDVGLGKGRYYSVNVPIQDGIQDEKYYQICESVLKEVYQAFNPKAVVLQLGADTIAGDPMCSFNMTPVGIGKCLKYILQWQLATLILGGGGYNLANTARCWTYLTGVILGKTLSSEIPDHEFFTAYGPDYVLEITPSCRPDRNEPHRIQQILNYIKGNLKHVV
Briefly: Inhibition of human HDAC8 using Fluor de Lys as substrate by fluorimetric method.

Series [12] has as its target T4, Protein deacetylase HDAC6 (Homo sapiens, UniProt Q9UBN7).
T4 sequence (Q9UBN7 whole entry): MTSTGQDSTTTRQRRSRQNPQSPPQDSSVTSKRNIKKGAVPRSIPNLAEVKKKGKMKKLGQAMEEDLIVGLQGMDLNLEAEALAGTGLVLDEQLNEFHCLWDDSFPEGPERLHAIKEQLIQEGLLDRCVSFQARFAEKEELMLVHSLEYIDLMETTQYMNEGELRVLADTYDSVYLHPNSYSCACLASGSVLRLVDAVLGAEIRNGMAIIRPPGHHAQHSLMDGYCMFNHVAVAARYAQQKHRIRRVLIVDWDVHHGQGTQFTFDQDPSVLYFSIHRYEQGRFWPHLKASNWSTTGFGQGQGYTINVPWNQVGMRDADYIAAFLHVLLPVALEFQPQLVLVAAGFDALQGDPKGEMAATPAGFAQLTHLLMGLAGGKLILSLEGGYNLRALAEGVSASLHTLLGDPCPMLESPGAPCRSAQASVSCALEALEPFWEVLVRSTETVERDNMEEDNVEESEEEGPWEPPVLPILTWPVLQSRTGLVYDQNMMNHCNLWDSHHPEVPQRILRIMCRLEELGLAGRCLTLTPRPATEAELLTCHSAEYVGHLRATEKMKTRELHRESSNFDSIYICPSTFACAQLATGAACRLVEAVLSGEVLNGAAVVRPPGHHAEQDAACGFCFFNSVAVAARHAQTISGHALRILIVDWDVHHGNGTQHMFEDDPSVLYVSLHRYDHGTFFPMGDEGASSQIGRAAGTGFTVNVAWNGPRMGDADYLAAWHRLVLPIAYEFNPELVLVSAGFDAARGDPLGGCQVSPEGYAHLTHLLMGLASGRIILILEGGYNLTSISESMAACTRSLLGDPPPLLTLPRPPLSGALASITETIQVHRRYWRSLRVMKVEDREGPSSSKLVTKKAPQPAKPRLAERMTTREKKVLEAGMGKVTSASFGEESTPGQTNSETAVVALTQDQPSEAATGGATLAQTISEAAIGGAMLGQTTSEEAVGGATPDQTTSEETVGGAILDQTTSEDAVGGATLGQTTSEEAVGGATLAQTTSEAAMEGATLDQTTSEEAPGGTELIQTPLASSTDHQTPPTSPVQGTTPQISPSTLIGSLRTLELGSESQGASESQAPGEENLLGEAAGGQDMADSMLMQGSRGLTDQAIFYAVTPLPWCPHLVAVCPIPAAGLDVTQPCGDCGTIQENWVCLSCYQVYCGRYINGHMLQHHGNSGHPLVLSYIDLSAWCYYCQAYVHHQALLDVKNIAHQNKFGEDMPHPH
Briefly: Inhibition of human HDAC6 using Z-Lys(Ac)-AMC as substrate by fluorimetric method.

The target of series [13] is T5, Histone deacetylase 8 (Schistosoma mansoni, UniProt A5H660).
T5 sequence (A5H660 whole entry): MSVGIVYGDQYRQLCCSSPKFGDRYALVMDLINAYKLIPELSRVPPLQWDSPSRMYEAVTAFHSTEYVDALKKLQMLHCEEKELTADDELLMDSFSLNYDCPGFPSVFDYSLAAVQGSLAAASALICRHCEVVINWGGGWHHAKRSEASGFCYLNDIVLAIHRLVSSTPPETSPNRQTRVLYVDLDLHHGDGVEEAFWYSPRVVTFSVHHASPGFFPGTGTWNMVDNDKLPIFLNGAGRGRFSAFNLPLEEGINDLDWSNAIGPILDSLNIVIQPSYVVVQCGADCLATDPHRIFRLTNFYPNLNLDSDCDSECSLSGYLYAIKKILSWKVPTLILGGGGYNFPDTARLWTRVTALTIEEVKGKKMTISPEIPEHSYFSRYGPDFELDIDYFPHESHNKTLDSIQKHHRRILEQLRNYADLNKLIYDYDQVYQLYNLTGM
Briefly: Inhibition of Schistosoma mansoni HDAC8 using fluorogenic substrate by fluorescence method.

Series [14] has as its target T2, HDAC1 (histone deacetylase 1). Briefly: Inhibition of human HDAC1 at 200 uM using Z-Lys(Ac)-AMC as substrate by fluorimetric method relative to control. Particulars: HDAC1 enzyme, probe Z-Lys(Ac)-AMC.

The term inhibition denotes the change of the read-out against control, counted positive when it falls. The term pIC50 denotes the IC50 on a negative log10 scale, so that one unit is a factor of ten.

The structures appear in SMILES notation. pIC50: −log10 of the molar value.

As for `OC(CN1CCCCC1)Cn1c2ccc(Cl)cc2c2cc(Cl)ccc21` (stereo unspecified), the Activity in the series with Schistosoma japonicum [1] was 100%.
Consider `COc1ccc(-c2nc(-c3ccccc3OC)[nH]c2-c2ccc(OC)cc2)cc1`, for which the Activity with Schistosoma mansoni [2] is 33%; in the series with Schistosoma mansoni [3], less than 17%; in the series on Schistosoma mansoni [4] it was 88%; in the series on Schistosoma mansoni [5] it was 83%; in the series with Schistosoma mansoni [6], less than 17%.
For `CCCC(=O)OCCNC(=O)c1ccc(CCl)c([N+](=O)[O-])c1`, the inhibition in [7] was less than 27%.
Same read-out and setting: under `O=C(c1ccc(CCl)c([N+](=O)[O-])c1)N1CCOCC1` stands less than 27%.
In the series on Schistosoma japonicum [8], `O=C(CCl)N1CC(=O)N2CCc3sccc3C2C1` (stereo unspecified) showed an Activity of 100%.
As to `CN(C)c1ccc(/C=C2\NC(=O)N(Cc3c(F)cccc3Cl)C2=S)cc1`, the Activity in the series with Schistosoma mansoni [9] amounted to 100%.
In the case of `OC(CN1CCCC1)Cn1c2ccc(Cl)cc2c2cc(Cl)ccc21` (stereo unspecified), the Activity in the series on Schistosoma japonicum [1] came to 100%.
Compound `O=C(NO)c1cccc(C(=O)NOCc2ccc(Cl)cc2Cl)c1` showed an inhibition at 1 µM in [10] of less than 10%. In addition, the values for the pIC50 (against Histone deacetylase 8 [11]; in series [12]; on Histone deacetylase 8 [13]) were 6.20, 5.29 and 6.40, respectively. In [14], this compound returned an inhibition at 200 µM of 47.5%.
